The text below walks through data of article PMC7465636 (Biomolecules, 2020).

pIC50: −log10 of the molar value.

Data set [1] is classed as physicochemical. Particulars: in our experimental conditions. The source says: The methods used to prepare the 1-aryl-1H-1,2,3-triazoles and 2-aryl-2H-1,2,3-triazoles (54 examples) involved classical chemical transformations, and all evaluated compounds were from the group’s molecular bank and were present in other published works. […] This information can be important for future studies.

A further data set deals with P. falciparum 3D7. The settings on record: cited from earlier work.
The next data set relates to P. falciparum Dd2. Particulars: cited from earlier work.
A further data set relates to P. falciparum D10. The settings on record: cited from earlier work.
For a further data set, the system named is P. falciparum W2. The settings on record: cited from earlier work.
Data set [2] relates to knockout of P. falciparum PfSR25. Also on record: method as in PMID 28842684. Particulars: knockout versus wild type; cited from earlier work.

By melting point is commonly meant the temperature, or range, at which the solid turns liquid. `COc1ccc(-n2cc(/C=N/Nc3ccc(Br)cc3)nn2)cc1` [Compound 52, (E)-4-((2-(4-bromophenyl)hydrazono)methyl)-1-(4-methoxyphenyl)-1H-1,2,3-triazole] registered a melting point of 230 to 231 °C. Also, the solubilization result in data set [1] is reported as “weren’t able to be solubilized”.
As to `COc1ccc(-n2cc(/C=N/Nc3ccc(F)cc3)nn2)cc1` [Compound 53, (E)-4-((2-(4-fluorophenyl)hydrazono)methyl)-1-(4-methoxyphenyl)-1H-1,2,3-triazole], the melting point fell in the range of 195 to 197 °C. Besides, the solubilization entry in data set [1] is on record as “weren’t able to be solubilized”.
The term pIC50 denotes the negative decadic logarithm of the IC50, by convention in mol/L. Regarding `CCOC(=O)C1CN(Cc2c[nH]nn2)c2cc(Cl)c(F)cc2C1=O` (stereo not shown) [III], the pIC50 in the data set with P. falciparum 3D7 was 5.88.
Turning to `CN(C)C(Cn1cc(-c2ccccc2)nn1)NCc1ccccc1Cl` (stereo not shown) [II], the pIC50 in the data set on P. falciparum Dd2 was 4.89; in the data set on P. falciparum D10, 4.95.
`O=C(Cn1cc(CNc2ccnc3cc(Cl)ccc23)nn1)N1CCCCC1` [IV]: the pIC50 is 7.36 in the data set with P. falciparum Dd2 and 7.87 in the data set with P. falciparum D10.
Turning to `O=[N+]([O-])c1ccc(-n2cc(COc3ccc4cc(Br)ccc4c3)nn2)cc1` [I], the pIC50 is 4.87 in the data set with P. falciparum Dd2 and 4.83 in the data set with P. falciparum 3D7.
Regarding `COc1cc([N+](=O)[O-])ccc1-n1cc(COC2=C(CC=C(C)C)C(=O)C=C(C)C2=O)nn1` [V], the pIC50 with P. falciparum W2 was 5.39.
`Clc1ccc2c(N3CCN(CCCN4CCN(c5ccnc6cc(Cl)ccc56)CC4)CC3)ccnc2c1` [piperaquine]: the “susceptibility of PfSR25 knockout parasite to the drug” value in data set [2] is on record as “more susceptible”.
